Reference: patent US9238053B2, “Methods for treatment of pain” (Nocicepta LLC, priority 2009, dated 2016)

Assays:
male rats = experiment: Facial formalin model of tonic pain (formalin injection into the lip, facial wiping/grooming); type: in vivo; details: rat lip formalin
Procedure: Time spent grooming was determined over 45 minutes and grouped in 3 minute bins. […] The area under the curve (AUC) for each compound or vehicle was approximated using the trapezodial method. % Reduction=[(Vehicle AUC−Treatment AUC)/Vehicle AUC)]×100%. Data are presented as the mean±1 SEM. (n=6-8 Rats/group).
The paw formalin model is widely used to assess tonic pain efficacy of putative and known analgesic treatments.

rats = details: intraperitoneal 3.0 mg/kg or intranasal 4.0 mg/kg, regardless of route
Procedure: Compounds were administered 20-30 minutes prior to the charcoal meal (2 mL/rat). Rats were sacrificed 30 minutes after receiving the meal. % transit was calculated as the ratio of the travel distance of the charcoal marker divided by the full length of the small intestine multiplied by 100%. Data are presented as the mean±1 SEM. (n=8 Rats/group).
In order to determine whether intransasal N/OFQ, which has a similar analgesic efficacy to that of strong opiates, would also produce constipation, the effects of intranasal N/OFQ on gastric transit time was assessed. […] Stomach and small intestine were immediately removed and both the total length of small intestine and the distance traveled by the charcoal were recorded. Percent transit was calculated as the ratio of charcoal distance divided by total small intestine length multiplied by 100%.

NOP receptor = biological target: T1, NOP receptor (Rattus norvegicus, UniProt P35370); experiment: Effect of nociceptin antagonist on intranasal nociceptin induced reduction of thermal nociception; type: in vivo; details: subcutaneous 10.0 mg/kg, 45 minutes before i.n. nociceptin (5.0 mg/kg); rat cheek and hindpaw
T1 construct: from tissue; host or cells: whole living male Sprague-Dawley rats (in vivo)
T1 sequence (P35370 whole entry): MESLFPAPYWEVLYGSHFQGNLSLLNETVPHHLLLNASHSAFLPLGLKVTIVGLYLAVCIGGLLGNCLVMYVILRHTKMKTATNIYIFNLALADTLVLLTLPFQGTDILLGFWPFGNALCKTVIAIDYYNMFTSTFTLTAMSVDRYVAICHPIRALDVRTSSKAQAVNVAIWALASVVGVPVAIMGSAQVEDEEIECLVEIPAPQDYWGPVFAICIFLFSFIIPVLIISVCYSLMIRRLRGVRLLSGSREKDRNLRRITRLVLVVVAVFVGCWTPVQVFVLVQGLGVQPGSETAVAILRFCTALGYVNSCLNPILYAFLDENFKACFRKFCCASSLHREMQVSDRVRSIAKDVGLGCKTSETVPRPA
Description: This experiment was to verify the binding site of nociceptin induced analgesia in a thermal nociceptive rodent model.
(A) Groups of six rats per test run were lightly anesthetized with urethane (1.0 g/kg, i.p., titrated to minimal activity in the absence of a stimulus) (Sherman and Loomis et al, 1996). The left and right cheeks and right hindpaw were blackened with India ink to allow even heat distribution.
(B) Each 200-300 g male Sprague-Dawley rat was subjected to varying heat intensities on the left and right check and right hindpaw for selective testing of A-delta vs. C fiber nociception (Yeomans et al., 1996). • For C-fiber testing, the heat intensity was adjusted by altering the supply voltage of a focused projector lamp until a withdrawal latency between 9-13 seconds was observed. […] To reduce the potential for tissue damage, a cut-off latency of 20 seconds was used after which the stimulus was terminated. […]
(E) Withdrawal latencies were measured in response to radiant heat stimulation of the left and right cheeks, followed by similar measurements of response latencies for each hindpaw. […]
The efficacy of nasal application of nociceptin was measured in rats pretreated with subcutaneous nociceptin antagonist in comparison to rats pre-treated with subcutaneous saline vehicle. […]

For `CN1CC[C@]23c4c5ccc(O)c4O[C@H]2[C@@H](O)C=C[C@H]3[C@H]1C5` [morphine], the “maximal inhibition of facial wiping behavior” value (male rats; 3 mg/kg i.n.) was 80.2% and the “effect on intestinal transit (percent transit)” value (rats) was “considerable slowing of transit”.

For `Cc1cccc2c1CC[C@@H](CN1CCC(c3c(Cl)cccc3Cl)CC1)C[C@H]2O` [SB-612111, (−)-cis-1-methyl-7-[[4-(2,6-dichlorophenyl)piperidin-1-yl]-methyl]-6,7,8,9-tetrahydro-5H-benzocyclohepten-5-ol], the “effect on analgesic activity of intranasal nociceptin” value (NOP receptor) was “apparent block of the analgesic activity of nociceptin”.

Compound `CNS(=O)(=O)Cc1ccc2[nH]cc(CCN(C)C)c2c1` [sumatriptan] has an inhibition at 42 mg/kg (male rats; ip, 42 mg/kg i.p., read-out: inhibition of facial wiping behavior) of 43.8%.
